Measured values reported in patent US20110312897A1, “CATHEPSIN L PROTEOLYTICALLY PROCESSES HISTONE H3 DURING MOUSE EMBRYONIC STEM CELL DIFFERENTIATION” (THE ROCKEFELLER UNIVERSITY, priority 2008, published 2011).
Where a SMILES comes first, the peptide text is derived from it. Where no end group is shown, it is not given here. The star is where a group is joined. Cbz = O=C(OCc1ccccc1)*; CH2F = FC*

Tests used:
cathepsin L [1] = target: cathepsin L (Homo sapiens, UniProt P07711); conditions: cited from earlier work
cathepsin L, sequence (P07711 114-333, species assumed): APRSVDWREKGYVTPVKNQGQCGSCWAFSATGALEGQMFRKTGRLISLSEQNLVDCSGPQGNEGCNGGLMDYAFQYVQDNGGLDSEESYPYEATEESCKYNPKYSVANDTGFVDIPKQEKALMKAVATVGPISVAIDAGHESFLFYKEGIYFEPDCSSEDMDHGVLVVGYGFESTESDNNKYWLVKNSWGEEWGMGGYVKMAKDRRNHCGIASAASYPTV

cathepsin D = cathepsin D (Homo sapiens, UniProt P07339); conditions: cited from earlier work
cathepsin D, sequence (P07339 65-412): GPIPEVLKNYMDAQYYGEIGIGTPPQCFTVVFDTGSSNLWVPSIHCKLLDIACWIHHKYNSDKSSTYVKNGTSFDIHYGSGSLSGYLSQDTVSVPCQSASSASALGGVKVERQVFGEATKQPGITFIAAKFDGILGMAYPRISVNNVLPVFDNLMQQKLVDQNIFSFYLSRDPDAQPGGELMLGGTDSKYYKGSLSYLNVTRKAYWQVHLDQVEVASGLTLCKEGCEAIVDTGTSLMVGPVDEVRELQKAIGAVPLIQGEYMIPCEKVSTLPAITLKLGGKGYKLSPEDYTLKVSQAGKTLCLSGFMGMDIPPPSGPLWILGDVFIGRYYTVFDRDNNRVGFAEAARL

Cbx7-CD protein = target: T1, Cbx7-CD protein (Mus musculus, UniProt Q8VDS3); assay: Fluorescence anisotropy of Cbx7-CD binding to H3 peptides; conditions: p<0.01
T1 construct: the chromodomain of mouse CBX7; made in house
T1 sequence (Q8VDS3 11-69 limits assumed): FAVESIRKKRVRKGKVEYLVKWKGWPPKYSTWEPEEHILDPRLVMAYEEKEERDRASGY
Experimental: FIG. 7A is an immunoblot showing cleavage of the modified recombinant histone 3 substrates following incubation with rCathepsin L. The four rH3 substrates used in the cleavage assay include: 1=rH3 unmodified, 2=rH3 alkylated to K27me2, 3=rH3 pan-acetylated with acetic anhydride, 4=rH3+K27me2 pan-acetylated with acetic anhydride. FIG. 7B is a graph showing the amount of recombinant H3 cleavage product formed following incubation with Cathepsin L. H3 cleavage reactions were performed as in FIG. 7A using synthesized H3 peptides representing amino acids 15 to 31. Reactions were incubated with ˜250 pmol peptide and quenched with 0.1% TFA before being plated in duplicate for ELISA with the H3cs.1 antibody. Signal was normalized to that of mock reactions for each peptide. Results represent three independent experiments. […] Binding decreases 3-fold with cleaved peptide. p<0.01. Kds are in μM±SEM. Data points represent the mean±SD
What effect the cleavage of the H3 tail, a proteolytic modification rather than a covalent modification, might have on the binding of effector proteins was examined. […]

[2] = target: T2, chromodomain of mouse CBX7 (Mus musculus, UniProt Q8VDS3); assay: Peptide pull-down assay; format: binding; conditions: cleaved vs non-cleaved H3 tail peptide
T2 construct: the chromodomain of mouse CBX7; made in house
T2 sequence (Q8VDS3 11-69 limits assumed): T1 sequence (Q8VDS3 11-69 limits assumed)
Experimental: Peptide pull-down assays were performed as described Wysocka, J. “Identifying Novel Proteins Recognizing Histone Modifications Using Peptide Pull-down Assay,” Methods 40:339-343 (2006), which is hereby incorporated by reference in its entirety, using biotinylated peptides conjugated to streptavidin agarose beads (Pierce Cat. No. 20349). Elutions were loaded onto 10 or 15% SDS-PAGE gels and silver stained.
What effect the cleavage of the H3 tail, a proteolytic modification rather than a covalent modification, might have on the binding of effector proteins was examined. Given that K27 methylation is a well-documented binding site for the chromodomain-containing protein Polycomb (Bernstein et al., “Mouse Polycomb Proteins Bind Differentially to Methylated Histone H3 and RNA and are Enriched in Facultative Heterochromatin,” Mol Cell Biol 26:2560-2569 (2006) and Fischle et al., “Molecular Basis for the Discrimination of Repressive Methyl-lysine Marks in Histone H3 by Polycomb and HP1 Chromodomains,” Genes Dev 17:1870-1881 (2003), which are hereby incorporated by reference in their entirety), the effect of H3 cleavage on Pc binding to H3K27 methylation was tested. […]

[3] = target: T3, H3 protease activity in fraction #23 (Mus musculus, UniProt P06797); assay: In vitro H3 cleavage assay of hydroxyapatite fraction #23 +/- protease inhibitors; format: biochemical
T3 construct: a double chain mature form at ˜25 kD and ˜5 kD; endogenous in cells; host or cells: chromatin of 3 days +RA differentiating mouse ESCs (LF2), hydroxyapatite fraction #23
T3 sequence (P06797 114-288 limits assumed): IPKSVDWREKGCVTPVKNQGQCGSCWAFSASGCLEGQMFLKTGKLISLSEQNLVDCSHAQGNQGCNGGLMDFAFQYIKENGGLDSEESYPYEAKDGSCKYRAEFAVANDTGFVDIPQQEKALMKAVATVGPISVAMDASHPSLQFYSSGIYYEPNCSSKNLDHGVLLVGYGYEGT
T3 sequence (P06797 291-334 limits assumed): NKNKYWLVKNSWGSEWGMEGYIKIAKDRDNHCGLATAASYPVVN
Experimental: (§1) Extracts were incubated in buffer (10 mM HEPES, 10 mM KCl, 1.5 mM MgCl2, 0.34M sucrose, 10% glycerol, 5 mM β-mercaptoethanol, all final) with 0.1 μg/μl rH3-HIS (purified from E. coli) and incubated at 37° C. for 1-3 hours. Reactions were stopped by addition of 5×SDS sample buffer and boiling; results were analyzed by immunoblotting with HIS-HRP and/or H3.cs1 antibody. For MS analysis, reactions were quenched by addition of 0.1% (final) TFA. rCathepsin L (R&D Systems, # 1515-CY-010), rCathepsin B (R&D Systems Cat No. BAF965), and rCathepsin K (Calbiochem Cat. No. 342001) were purchased from commercial sources and tested in the assay with rH3-HIS.
Three days+RA differentiating ESC chromatin pellets were solubilized by sonication in buffer A (80 mM NaPO^−4, 200 mM NaCl), injected onto a 2 or 5 mL hydroxyapatite column (BioRad), and fractionated with a 200 mM to 2M NaCl gradient. Each fraction was then assayed as described above. […] Digest was then acidified with glacial acetic acid and aliquots of samples were analyzed using an LTQ-FT as described above. Data was searched against a mouse database using SEQUEST (Eng et al., Journal of the American Society of Mass Spectrometry 5:976-989 (1994), which is hereby incorporated by reference in its entirety). All spectra of interest were manually validated.
To validate further the identification of Cathepsin L as a histone H3 protease, the enriched fractions were tested with different classes of protease inhibitors in the H3 cleavage assay.

[4] = target: T4, Recombinant mouse Cathepsin L (Mus musculus, UniProt P06797); assay: Inhibition of recombinant mouse Cathepsin L cleavage of rH3-HIS by E64 (immunoblot, FIG. 13); format: biochemical; conditions: pH 7.5 and pH 5.5; E64 10 μM, 50 μM, and 500 μM
T4 construct: purchased R&D Systems 1515-CY-010
T4 sequence (P06797 114-334): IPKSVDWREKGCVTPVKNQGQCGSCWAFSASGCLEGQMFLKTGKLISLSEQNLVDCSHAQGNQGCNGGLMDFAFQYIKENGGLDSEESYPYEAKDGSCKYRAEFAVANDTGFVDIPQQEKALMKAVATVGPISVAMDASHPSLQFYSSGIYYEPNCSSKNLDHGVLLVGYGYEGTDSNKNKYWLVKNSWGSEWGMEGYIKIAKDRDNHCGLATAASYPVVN
Experimental: Recombinant mouse Cathepsin L was incubated with C-terminally HIS-tagged recombinant histone H3 at both pH 7.5 (left) and pH 5.5 (right) in either buffer alone (−) or in the presence of the cysteine protease inhibitor E64 (+); the final concentration of E64 was 10 μM, 50 μM, and 500 μM.
as §1

Cathepsin L [5] = target: T5, Cathepsin L (Mus musculus, UniProt P06797); assay: Chemical inhibition of Cathepsin L in RA-differentiating ESCs (immunoblot); format: cell-based; conditions: 10 uM in cell media, RA differentiation
T5 construct: endogenous in cells; host or cells: mouse ES cells (LF2 line), RA-differentiated
T5 sequence (P06797 114-334): as above
Experimental: (§2) ES cells (LF2 line) were cultured as previously described (Bernstein et al., “Mouse Polycomb Proteins Bind Differentially to Methylated Histone H3 and RNA and are Enriched in Facultative Heterochromatin,” Mol Cell Biol 26:2560-2569 (2006), which is hereby incorporated by reference in its entirety). Cells were grown on gelatin-coated plates without feeder cells and maintained in an undifferentiated state through culture in KODMEM (Invitrogen 1082-9018)), 2 mM L-glutamine (Sigma G7513), 15% ES grade fetal bovine serum (Gibco 10439-024), 10^−4 mM 2-mercaptoethanol, and leukemia inhibitory factor (LIF). To differentiate, cells were plated sparsely at ˜1*10^4 cells/cm^2, allowed to adhere overnight and then fed with differentiation media containing DMEM, 10% FBS, 10^−4 mM 2-mercaptoethanol and, for retinoic acid (RA) differentiation, 100 nM all-trans-RA (Sigma R2625). Embryoid body formation was accomplished by splitting partially trypsinized cells onto non-treated petri dishes and allowing cells to cluster. Chemical inhibition of Cathepsin L was accomplished by adding 10 uM [final] Cathepsin L I inhibitor (Calbiochem, Cat. No. 219402) to the cell media.
Whole cell extracts were prepared by resuspending fresh or flash frozen cell pellets in SDS-Laemmli sample buffer and boiling immediately. […]
(§3) To further assess whether Cathepsin L causes histone H3 cleavage in vivo, a commercially available, cell-permeable Cathepsin L specific inhibitor, Cathepsin L Inhibitor I, was used Inhibition of Cathepsin L using a chemical inhibitor allowed the effect of Cathepsin L inhibition to be assessed within a single, wild-type cell line rather than comparing individual cell lines created by drug selection. […]

differentiating ESCs = assay: Pluripotency and lineage marker expression in differentiating ESCs (immunoblot, Q-PCR); format: cell-based, mouse; conditions: for Nanog expression: inhibitor vs control cells
Source text: FIGS. 15A-15C show the effect of in vivo chemical inhibition of Cathepsin L on the transcriptional profile of differentiating ESCs. Cells were differentiated with RA in the presence of either Cathepsin L I inhibitor or DMSO alone, as in FIG. 6B. mRNA was isolated from those cells at the time points indicated, reverse transcribed into cDNA, and assayed for the expression of specific genes by Q-PCR with SYBR green. The data shown in FIGS. 15A-15C represent the average of two independent experiments.
as §2
RNA was isolated from undifferentiated and +RA differentiating ESCs using Trizol reagent as directed by the manufacturer (Invitrogen Cat. No. 15596-018). RNA was transcribed into cDNA using the First Strand Superscript kit (Invitrogen Cat. No. 18080-051) and analyzed by quantitative PCR using SYBRgreen reagent (Applied Biosystems Cat. No. 4309155).
Importantly, neither Oct-3/4 nor Cathepsin B levels (FIG. 6C, panels d and e) appeared to change upon addition of the inhibitor.

Cathepsin B = target: T6, Cathepsin B (Mus musculus, UniProt P10605); assay: Chemical inhibition in RA-differentiating ESCs, Cathepsin B immunoblot; format: cell-based; conditions: 10 uM in cell media, RA differentiation, vs control cells
T6 construct: endogenous in cells; host or cells: mouse ES cells (LF2 line), RA-differentiated
T6 sequence (P10605 80-333): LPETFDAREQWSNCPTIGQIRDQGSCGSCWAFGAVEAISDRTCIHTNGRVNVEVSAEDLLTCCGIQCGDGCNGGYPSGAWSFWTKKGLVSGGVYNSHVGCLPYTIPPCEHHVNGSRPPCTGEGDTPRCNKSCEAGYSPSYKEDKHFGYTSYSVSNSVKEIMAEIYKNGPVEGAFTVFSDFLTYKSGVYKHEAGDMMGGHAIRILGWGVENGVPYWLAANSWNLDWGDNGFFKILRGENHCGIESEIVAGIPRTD
Experimental: ES cells (LF2 line) were cultured as previously described (Bernstein et al., “Mouse Polycomb Proteins Bind Differentially to Methylated Histone H3 and RNA and are Enriched in Facultative Heterochromatin,” Mol Cell Biol 26:2560-2569 (2006), which is hereby incorporated by reference in its entirety). Cells were grown on gelatin-coated plates without feeder cells and maintained in an undifferentiated state through culture in KODMEM (Invitrogen 1082-9018)), 2 mM L-glutamine (Sigma G7513), 15% ES grade fetal bovine serum (Gibco 10439-024), 10^−4 mM 2-mercaptoethanol, and leukemia inhibitory factor (LIF). To differentiate, cells were plated sparsely at ˜1*10^4 cells/cm^2, allowed to adhere overnight and then fed with differentiation media containing DMEM, 10% FBS, 10^−4 mM 2-mercaptoethanol and, for retinoic acid (RA) differentiation, 100 nM all-trans-RA (Sigma R2625). […]
as §3

[6] = Q-PCR, after 3 days of differentiation, vs control cells

NC(N)=O [Urea]
enhancement of cathepsin L activity, factor (cathepsin L [1]): 2.5 | enhancement of cathepsin D activity, factor (cathepsin D): 6

cleaved peptide: peptide mimicking the cleaved H3 tail, amino acid residues 22-37, K27 methylated (TKAARK(Me)SAPATGGVKK; not fully specified)
decrease in Cbx7-CD binding vs non-cleaved peptide (amino acid residues 18-37) (Cbx7-CD protein): 3 fold | CBX7 binding to methylated H3K27 [2]: greatly diminished

CC(C)C[C@H](NC(=O)[C@H]1O[C@@H]1C(=O)O)C(=O)NCCCCN=C(N)N (relative stereo) [E64, L-trans-Epoxysuccinyl-leucylamido(4-guanidino)butane]
H3 cleavage activity ([3]; E64 10 μM, lowest concentration tested): all cleavage was abolished | inhibition of H3 protease activity in fraction #23 ([3]; FIG. 4A): potent inhibitor of the H3 protease activity | inhibition of recombinant mouse Cathepsin L (rH3-HIS cleavage) [4]: inhibition of recombinant mouse Cathepsin L

O=C(NC(Cc1ccccc1)C(=O)NC(Cc1ccccc1)C(=O)CF)OCc1ccccc1 (stereo not drawn) [Cathepsin L Inhibitor I] (Cbz-Phe-Phe-CH2F; configuration not given here)
all cleavage detected by the H3-general antibody (Cathepsin L [5]): abolished | histone H3 cleavage (H3-general and H3.cs1 antibodies) (Cathepsin L [5]; vs DMSO): decreased significantly | processing of Cathepsin L from intermediate form into mature form (Cathepsin L [5]; vs DMSO): significant failure to fully process Cathepsin L | Nestin expression (differentiating ESCs; [6]): trend toward maintaining higher expression | Pax3 expression (differentiating ESCs; [6]): trend toward maintaining higher expression | Nanog expression (differentiating ESCs; Q-PCR): remains unaffected | Nanog expression (differentiating ESCs; Q-PCR, listed as Cathepsin L I inhibitor): does not differ significantly | Gata6 expression (differentiating ESCs; Q-PCR, vs control): decreased expression | Sox17 expression (differentiating ESCs; Q-PCR, vs control): decreased expression | HoxA1 expression (differentiating ESCs; Q-PCR, vs control cells): did not show any significant trend | Musashi expression (differentiating ESCs; Q-PCR, vs control cells): did not show any significant trend | Oct-3/4 loss pattern (pluripotency marker) (differentiating ESCs; immunoblot, RA differentiation): unchanged | Cathepsin B levels (Cathepsin B): consistency of Cathepsin B levels
